Where “and” joins values, the source holds several entries; their conditions need not be identical. Equal entries are not always repeated.
Tested on: 991263-137-R1-J2-PDC complex spheroid viability
Assay: Anticancer human tumor 991263-137-R1-J2-PDC patient-derived colon adenocarcinoma cell line growth inhibition [POLQ]
Settings: for viability, T/C: stronger effect = lower value
Method: Multicellular complex tumor spheroid response to Polymerase (POL) inhibitors (novobiocin, ART-558, RP6685) in combination with a variety of drugs and investigational agents in selected tumor cell lines
The POL inhibitors (novobiocin, ART-558, and RP6685) were evaluated both individually and in combination with standard of care and investigational anticancer small molecules within a complex spheroid model of solid tumors. . Complex spheroids include a stromal component modeled by human endothelial cells (HUVEC) and fibroblasts modeled by human mesenchymal stem cells (MSCs). The concentration ranges selected for each drug and investigational agent were based upon clinically achievable concentrations if the clinical Cmax of the agent was known.
Compounds. The drugs and investigational agents: novobiocin (NSC847541), ART-558 (NSC835418), RP-6685 (NSC848927), peposertib (NSC802822), ceralasertib (NSC780249), elimusertib (NSC800525), camonsertib (NSC841442), AZD-1390 (NSC803789), olaparib (NSC753686), talazoparib (NSC767125), rucaparib (NSC756644), sotorasib (NSC818433), MRTX-1133 (NSC836407), SN-38 (NSC673596), topotecan (NSC609699), epotoside (NSC141540), doxorubicin (NSC123127), gemcitabine (NSC613327), 5-fluorouracil (NSC19893), paclitaxel (NSC125973), vemurafenib (NSC761431), MSA-2 (NSC828583), SN-011 (NSC837082), adavosertib (NSC754352), prexasertib (NSC758257), carboplatin (NSC241240) and oxaliplatin (NSC266046), were obtained from the National Cancer Institute (NCI) Developmental Therapeutics Program Chemical Repository (21). The FDA-approved anticancer drug set is available from the Developmental Therapeutics Program at https://dtp.cancer.gov/organization/dscb/obtaining/. […] The stock solutions were prepared in dimethyl sulfoxide (DMSO, Sigma-Aldrich, St. Louis, MO, cat. D2650), except for the platinum compounds which were prepared in saline (Quality Biological, Gaithersburg, MD, cat. 114-055-101), at 800-fold the tested concentration and stored at -70 degrees C prior to their use. All drugs and investigational agents were tested over a range starting from a high concentration at or near the clinical Cmax and decreasing in half-log increments. If the clinical Cmax for an agent had not been determined, the highest concentration tested was 10 microM, except for SN-38, which was tested at a high concentration of 1 microM.
Cell Culture. All cells were maintained in an incubator at 37 degrees C and 5% CO2 with 95% humidity. The PDC lines were cultured according to standard operating procedures established by the NCI PDMR (https://pdmr.cancer.gov). Table 3 of the manuscript, lists the cell lines along with the number of the three cell types plated to form the mct-spheroids and media for tumor cell growth. After thawing, all PDC lines, except 997537-175-T-J1-PDC and 415267-285-R-J2-PDC, were cultured in Matrigel-coated flasks prepared with a working solution of 1X Ham's F-12 nutrient mix, without supplementation (Thermo Fisher Scientific, cat. 11765054), 100 U/mL penicillin-streptomycin (Thermo Fisher Scientific, cat. 15140122), and 2.5% Matrigel (Corning Inc., Corning, NY, cat. 354248) for the first three passages. The two PDC lines 997537-175-T-J1-PDC and 415267-285-R-J2-PDC were cultured on uncoated flasks. The 857933-349-R-J2-PDC line was cultured in 6C/Colon 1B media containing advanced DMEM/F-12 (Thermo Fisher Scientific, cat. 12634028), 10 mM HEPES (Thermo Fisher Scientific, cat. 15630080), 1X GlutaMAX supplement (Thermo Fisher Scientific, cat. 35050061), 0.1 mg/mL primocin (InvivoGen, San Diego, CA, cat. ant-pm-2), 10% defined fetal bovine serum, heat inactivated (HyClone Laboratories Inc., Logan, UT, cat. SH30070.03HI), 50% L-WRN conditioned media (ATCC, cat. CRL-3276), 1.25 mM N-Acetyl-L-cysteine (Sigma-Aldrich, cat. A9165), 10 mM nicotinamide (Sigma-Aldrich, cat. N0636), 1X B-27 supplement (Thermo Fisher Scientific, cat. 17504044), 1X N-2 supplement (Thermo Fisher Scientific, cat. […]

[1] = curve of first compound, second compound 0.0316 µM
[2] = curve of first compound, second compound 0.1 µM
[3] = curve of first compound, second compound 0.316 µM
[4] = curve of first compound, second compound 1 µM
[5] = curve of first compound, second compound 3.16 µM
[6] = curve of first compound, second compound 10 µM
[7] = second compound 0.0316 µM, first compound 0.0316 µM
[8] = second compound 0.0316 µM, first compound 0.1 µM
[9] = second compound 0.0316 µM, first compound 0.316 µM
[10] = second compound 0.0316 µM, first compound 1 µM
[11] = second compound 0.0316 µM, first compound 3.16 µM
[12] = second compound 0.0316 µM, first compound 10 µM
[13] = second compound 0.1 µM, first compound 0.0316 µM
[14] = second compound 0.1 µM, first compound 0.1 µM
[15] = second compound 0.1 µM, first compound 0.316 µM
[16] = second compound 0.1 µM, first compound 1 µM
[17] = second compound 0.1 µM, first compound 3.16 µM
[18] = second compound 0.1 µM, first compound 10 µM
[19] = second compound 0.316 µM, first compound 0.0316 µM
[20] = second compound 0.316 µM, first compound 0.1 µM
[21] = second compound 0.316 µM, first compound 0.316 µM
[22] = second compound 0.316 µM, first compound 1 µM
[23] = second compound 0.316 µM, first compound 3.16 µM
[24] = second compound 0.316 µM, first compound 10 µM
[25] = second compound 1 µM, first compound 0.0316 µM
[26] = second compound 1 µM, first compound 0.1 µM
[27] = second compound 1 µM, first compound 0.316 µM
[28] = second compound 1 µM, first compound 1 µM
[29] = second compound 1 µM, first compound 3.16 µM
[30] = second compound 1 µM, first compound 10 µM
[31] = second compound 3.16 µM, first compound 0.0316 µM
[32] = second compound 3.16 µM, first compound 0.1 µM
[33] = second compound 3.16 µM, first compound 0.316 µM
[34] = second compound 3.16 µM, first compound 1 µM
[35] = second compound 3.16 µM, first compound 3.16 µM
[36] = second compound 3.16 µM, first compound 10 µM
[37] = second compound 10 µM, first compound 0.0316 µM
[38] = second compound 10 µM, first compound 0.1 µM
[39] = second compound 10 µM, first compound 0.316 µM
[40] = second compound 10 µM, first compound 1 µM
[41] = second compound 10 µM, first compound 3.16 µM
[42] = second compound 10 µM, first compound 10 µM
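Also: spheroids exposed to compounds for 7 days before readout.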
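For viability, T/C in this document: 100% = DMSO vehicle control viability.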

Compound: CCCS(=O)(=O)Nc1ccc(F)c(C(=O)c2c[nH]c3ncc(-c4ccc(Cl)cc4)cc23)c1F
- viability, T/C (compound 0.0316 µM): 110% and 93.5% and 111%
- viability, T/C (compound 0.1 µM): 99.2% and 90.3% and 101%
- viability, T/C (compound 0.316 µM): 108% and 94.4% and 86%
- viability, T/C (compound 3.16 µM): 114% and 104% and 107%
- viability, T/C (compound 10 µM): 97.2% and 94.1% and 109%
- IC50 (curve of compound): > 10 µM

Compound: C#Cc1c(F)ccc2cc(O)cc(-c3ncc4c(N5CC6CCC(C5)N6)nc(OCC56CCCN5CC(F)C6)nc4c3F)c12 (centres undefined) + Nc1ccc(C#CCN(C(=O)Cc2ncc(C(F)(F)F)cc2C(F)(F)F)c2ccc(F)cc2)nn1
- IC50 [1]: > 10 µM
- IC50 [2]: > 10 µM
- IC50 [3]: > 10 µM
- IC50 [4]: > 10 µM
- IC50 [5]: > 10 µM
- IC50 [6]: > 10 µM
- viability, T/C [7]: 104%
- viability, T/C [8]: 111%
- viability, T/C [9]: 99.6%
- viability, T/C [10]: 102%
- viability, T/C [11]: 105%
- viability, T/C [12]: 88%
- viability, T/C [13]: 103%
- viability, T/C [14]: 108%
- viability, T/C [15]: 96.5%
- viability, T/C [16]: 102%
- viability, T/C [17]: 103%
- viability, T/C [18]: 92%
- viability, T/C [19]: 103%
- viability, T/C [20]: 99.8%
- viability, T/C [21]: 99.8%
- viability, T/C [22]: 102%
- viability, T/C [23]: 105%
- viability, T/C [24]: 108%
- viability, T/C [25]: 97.5%
- viability, T/C [26]: 95.2%
- viability, T/C [27]: 107%
- viability, T/C [28]: 86.8%
- viability, T/C [29]: 106%
- viability, T/C [30]: 96.1%
- viability, T/C [31]: 102%
- viability, T/C [32]: 105%
- viability, T/C [33]: 104%
- viability, T/C [34]: 112%
- viability, T/C [35]: 123%
- viability, T/C [36]: 98.7%
- viability, T/C [37]: 100%
- viability, T/C [38]: 98.2%
- viability, T/C [39]: 93.4%
- viability, T/C [40]: 101%
- viability, T/C [41]: 87.6%
- viability, T/C [42]: 80.4%

Compound: CC[C@@]1(O)C(=O)OCc2c1cc1n(c2=O)Cc2cc3c(CN(C)C)c(O)ccc3nc2-1
- viability, T/C (compound 0.000316 µM): 111% and 94.9% and 103%
- viability, T/C (compound 0.001 µM): 101% and 96.9% and 107%
- viability, T/C (compound 0.00316 µM): 110% (2×) and 111%
- viability, T/C (compound 0.01 µM): 105% and 101% and 91.5%
- viability, T/C (compound 0.0316 µM): 100% and 91.2% and 89.8%
- viability, T/C (compound 0.1 µM): 90.4% and 80.7% and 84.4%
- IC50 (curve of compound): > 0.1 µM

Compound: CC(=O)O[C@H]1C(=O)[C@@]2(C)[C@H]([C@H](OC(=O)c3ccccc3)[C@]3(O)C[C@H](OC(=O)[C@H](O)[C@@H](NC(=O)c4ccccc4)c4ccccc4)C(C)=C1C3(C)C)[C@]1(OC(C)=O)CO[C@@H]1C[C@@H]2O
- viability, T/C (compound 0.00949 µM): 79.8% and 86.8% and 96.5%
- viability, T/C (compound 0.03 µM): 85.2% and 89.3% and 87.6%
- viability, T/C (compound 0.0949 µM): 85.4% and 84% and 87.8%
- viability, T/C (compound 0.3 µM): 73.3% and 77.9% and 82.3%
- viability, T/C (compound 0.949 µM): 52.2% and 63.6% and 54.8%
- viability, T/C (compound 3 µM): 46.8% and 47.3% and 44.4%
- IC50 (curve of compound): 1.45 µM and 2.48 µM and 1.63 µM

Compound: O=C(Nc1ccc(O)c(NS(=O)(=O)c2ccc(F)cc2)c1)c1ccc(-c2ccccc2)cc1 + Nc1ccc(C#CCN(C(=O)Cc2ncc(C(F)(F)F)cc2C(F)(F)F)c2ccc(F)cc2)nn1
- IC50 [1]: > 10 µM
- IC50 [2]: > 10 µM
- IC50 [3]: > 10 µM
- IC50 [4]: > 10 µM
- IC50 [5]: > 10 µM
- IC50 [6]: > 10 µM
- viability, T/C [7]: 97.7%
- viability, T/C [8]: 108%
- viability, T/C [9]: 107%
- viability, T/C [10]: 104%
- viability, T/C [11]: 119%
- viability, T/C [12]: 100%
- viability, T/C [13]: 111%
- viability, T/C [14]: 97.5%
- viability, T/C [15]: 108%
- viability, T/C [16]: 107%
- viability, T/C [17]: 107%
- viability, T/C [18]: 107%
- viability, T/C [19]: 101%
- viability, T/C [20]: 105%
- viability, T/C [21]: 107%
- viability, T/C [22]: 105%
- viability, T/C [23]: 114%
- viability, T/C [24]: 101%
- viability, T/C [25]: 96.2%
- viability, T/C [26]: 100%
- viability, T/C [27]: 104%
- viability, T/C [28]: 105%
- viability, T/C [29]: 97.2%
- viability, T/C [30]: 102%
- viability, T/C [31]: 107%
- viability, T/C [32]: 108%
- viability, T/C [33]: 95.7%
- viability, T/C [34]: 109%
- viability, T/C [35]: 97.4%
- viability, T/C [36]: 95.3%
- viability, T/C [37]: 102%
- viability, T/C [38]: 110%
- viability, T/C [39]: 94.5%
- viability, T/C [40]: 104%
- viability, T/C [41]: 92.5%
- viability, T/C [42]: 101%

Reference: PubChem BioAssay AID1963828 (Molecular Pharmacology Branch, DTP, NCI, 2024)
